Assay results as given in US11319324B2, “Pyrazolo-pyrrolo-pyrimidine-dione derivatives as P2X3 inhibitors” (Bayer Aktiengesellschaft, priority 2017, dated 2022).

Assays:
Format in all cases: cell-based
human P2X2/3 receptors = molecular target: T1, human P2X2/3 receptors (Homo sapiens, UniProt P56373+Q9UBL9); test: Intracellular calcium measurement, antagonist activity at human P2X2/3 receptors (hP2X23 1321N1), Fluo8; conditions: for IC50: column 4); 1321N1 cells, human P2X2/3, Fluo8, agonist ATP at EC50; read-out: 4) hP2X2/3 IC50 [nM] (1321N1); for hP2X23/hP2X3* Selectivity (1321N1): ratio of column 4) hP2X2/3 to column 3) hP2X3, 1321N1
T1 construct: expressed in transfected cells; host or cells: human astrocytoma 1321N1 (1312N1 [sic])
T1 sequence (P56373 1-397): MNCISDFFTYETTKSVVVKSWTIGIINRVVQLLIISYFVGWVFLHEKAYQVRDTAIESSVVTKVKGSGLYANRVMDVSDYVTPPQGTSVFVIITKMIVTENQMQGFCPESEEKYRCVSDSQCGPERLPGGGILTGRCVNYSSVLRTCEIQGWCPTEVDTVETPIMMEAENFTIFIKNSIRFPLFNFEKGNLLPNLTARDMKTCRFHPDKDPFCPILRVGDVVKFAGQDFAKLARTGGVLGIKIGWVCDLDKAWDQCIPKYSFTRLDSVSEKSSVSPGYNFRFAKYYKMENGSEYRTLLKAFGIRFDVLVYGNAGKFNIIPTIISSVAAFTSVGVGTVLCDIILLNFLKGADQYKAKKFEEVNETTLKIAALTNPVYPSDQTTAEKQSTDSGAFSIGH
T1 sequence (Q9UBL9 1-471): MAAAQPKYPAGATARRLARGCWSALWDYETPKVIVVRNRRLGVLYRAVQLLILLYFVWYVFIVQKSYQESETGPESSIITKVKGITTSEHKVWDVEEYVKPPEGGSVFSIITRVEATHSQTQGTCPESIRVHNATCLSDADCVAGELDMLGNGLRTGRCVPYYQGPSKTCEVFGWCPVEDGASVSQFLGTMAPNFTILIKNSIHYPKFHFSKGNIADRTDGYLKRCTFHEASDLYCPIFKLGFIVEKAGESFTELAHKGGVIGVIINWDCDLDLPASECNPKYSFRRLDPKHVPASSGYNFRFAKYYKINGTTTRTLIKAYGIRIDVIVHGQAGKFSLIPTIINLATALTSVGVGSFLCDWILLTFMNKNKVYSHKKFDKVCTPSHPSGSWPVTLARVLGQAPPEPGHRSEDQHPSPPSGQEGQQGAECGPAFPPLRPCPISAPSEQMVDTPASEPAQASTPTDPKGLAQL
Summary of the method: (§1)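 Antagonism was assessed by decrease of the Fluo8 calcium signal after ATP challenge, with ATP dosed at the EC50 of whichever receptor was tested. Stable 1321N1 astrocytoma lines expressed either human P2X3 or both P2X2 and P2X3, and were dye-loaded 60 min before a 10 min compound incubation.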

human P2X3 receptor [1] = molecular target: T2, human P2X3 receptor (Homo sapiens, UniProt P56373); test: Intracellular calcium measurement to assess antagonist activity at human P2X3 receptors (hP2X3 CHO), photina luminescence; parameters: expressed in transfected cells; host or cells: Chinese hamster ovary (CHO) cells; conditions: column 2), CHO cells, agonist α,β-methylene-ATP at EC50
T2 sequence (P56373 1-397): T1 sequence (P56373 1-397)
Summary of the method: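 Antagonism read as lowered photina luminescence after agonist stimulation in recombinant hP2X3/photina CHO cells. Cells seeded one day earlier (30 °C) and reconstituted with 5 μg/ml coelenterazine in 2 mM Ca-tyrode buffer for 3 h at 37 °C before measurement.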

human P2X3 receptor [2] = molecular target: T2, human P2X3 receptor; test: Intracellular calcium measurement, antagonist activity at human P2X3 receptors (hP2X3 1321N1), Fluo8; parameters: expressed in transfected cells; host or cells: human astrocytoma 1321N1 (1312N1 [sic]); conditions: column 3); 1321N1 cells, human P2X3, Fluo8, agonist ATP at EC50
Summary of the method: as §1

Structure (SMILES) | IC50 (human P2X2/3 receptors) [nM] | hP2X23/hP2X3* Selectivity (1321N1) (human P2X2/3 receptors) | IC50 (human P2X3 receptor [1]) [nM] | IC50 (human P2X3 receptor [2]) [nM]
COC[C@H](C)N1Cc2c(n(CC(=O)Nc3ccc(F)cn3)c3cc(C4CCC4)nn3c2=O)C1=O [Example 110] | 3050 | 254 | 7 | 12
COC[C@H](C)N1Cc2c(n(CC(=O)Nc3ccc(F)cn3)c3cc(C(=O)NCC4CC4)nn3c2=O)C1=O [Example 190] | 5900 | 361 | 10 | 16
CCc1cc2n(CC(=O)Nc3ccc(F)cn3)c3c(c(=O)n2n1)CN(C1CCN(C(C)=O)C1)C3=O (centres unmarked) [Example 265] | > 32000 | >68 | 533 | 470
CC(C)N1Cc2c(n(CC(=O)Nc3ccc(F)cn3)c3cc(C4CCOC4)nn3c2=O)C1=O (racemic) [Example 228, 2-{5,8-dioxo-2-[(±)-oxolan-3-yl]-6-(propan-2-yl)-5,6,7,8-tetrahydro-4H-pyrazolo[1,5-a]pyrrolo[3,4-d]pyrimidin-4-yl}-N-(5-fluoropyridin-2-yl)acetamide] | > 23500 | >1175 | 95 | 20
CCc1cc2n(CC(=O)Nc3ccc(F)cn3)c3c(c(=O)n2n1)CN(CC1CCOC1)C3=O (centres unmarked) [Example 74] | > 32000 | >73 | 570 | 437
CC(C)N1Cc2c(n(CC(=O)Nc3ccc(F)cn3)c3cc(NC(=O)CO)nn3c2=O)C1=O [Example 289, N-[4-{2-[(5-fluoropyridin-2-yl)amino]-2-oxoethyl}-5,8-dioxo-6-(propan-2-yl)-5,6,7,8-tetrahydro-4H-pyrazolo[1,5-a]pyrrolo[3,4-d]pyrimidin-2-yl]-2-hydroxyacetamide] | > 32000 | >55 | 245 | 587
CC(=O)N1CCC(c2cc3n(CC(=O)Nc4ccc(F)cn4)c4c(c(=O)n3n2)CN(C(C)C)C4=O)CC1 [Example 263, 2-[2-(1-acetylpiperidin-4-yl)-5,8-dioxo-6-(propan-2-yl)-5,6,7,8-tetrahydro-4H-pyrazolo[1,5-a]pyrrolo[3,4-d]pyrimidin-4-yl]-N-(5-fluoropyridin-2-yl)acetamide] | 4700 | 191 | 35 | 25
COCCN1Cc2c(n(CC(=O)Nc3ccc(F)cn3)c3cc(C4CCOCC4)nn3c2=O)C1=O [Example 97] | 9750 | 207 | 66 | 47
CC(C)N1Cc2c(n(CC(=O)Nc3ccc(F)cn3)c3cc(NC(=O)c4cnn[nH]4)nn3c2=O)C1=O [Example 286] | 8200 | 248 | 22 | 33
CC(C)N1Cc2c(n(CC(=O)Nc3ccc(F)cn3)c3cc(C4CCN(S(=O)(=O)CC(F)(F)F)C4)nn3c2=O)C1=O (centres unmarked) [Example 271] | > 20500 | >569 | 81 | 36
COC[C@H](C)N1Cc2c(n(CC(=O)Nc3ccc(F)cn3)c3cc(C4CC4)nn3c2=O)C1=O [Example 101] | 6950 | 535 | 28 | 13
CCc1cc2n(CC(=O)Nc3ccc(F)cn3)c3c(c(=O)n2n1)CN(CCN)C3=O [Example 245, 2-[6-(2-aminoethyl)-2-ethyl-5,8-dioxo-5,6,7,8-tetrahydro-4H-pyrazolo[1,5-a]pyrrolo[3,4-d]pyrimidin-4-yl]-N-(5-fluoropyridin-2-yl)acetamide] | > 21000 | >61 | 425 | 345
CC(C)N1Cc2c(n(CC(=O)Nc3ccc(F)cn3)c3cc(NCC4CC4)nn3c2=O)C1=O [Example 175] | 6950 | 190 | 73 | 37
CCc1cc2n(CC(=O)Nc3ccc(F)cn3)c3c(c(=O)n2n1)CN(C[C@H]1CN(C(C)=O)CCO1)C3=O [Example 267] | 8000 | 25 | 557 | 325
CC(C)Cc1cc2n(CC(=O)Nc3ccc(F)cn3)c3c(c(=O)n2n1)CN(C1CCCC1)C3=O [Example 93] | 2350 | 295 | 6 | 8
CC(C)N1Cc2c(n(CC(=O)Nc3ccc(F)cn3)c3cc(C#N)nn3c2=O)C1=O [Example 146, 2-[2-cyano-5,8-dioxo-6-(propan-2-yl)-5,6,7,8-tetrahydro-4H-pyrazolo[1,5-a]pyrrolo[3,4-d]pyrimidin-4-yl]-N-(5-fluoropyridin-2-yl)acetamide] | 6950 | 56 | 97 | 124
CC(C)N1Cc2c(n(CC(=O)Nc3ccc(F)cn3)c3cc(CO)nn3c2=O)C1=O [Example 72] | > 32000 | >136 | 120 | 235
CC(C)Nc1cc2n(CC(=O)Nc3ccc(F)cn3)c3c(c(=O)n2n1)CN(C(C)C)C3=O [Example 171] | 4900 | 148 | 27 | 33
CCc1cc2n(CC(=O)Nc3ccc(F)cn3)c3c(c(=O)n2n1)CN(C[C@H]1CN(C(C)C)CCO1)C3=O [Example 256, 2-(2-ethyl-5,8-dioxo-6-{[(2R)-4-(propan-2-yl)morpholin-2-yl]methyl}-5,6,7,8-tetrahydro-4H-pyrazolo[1,5-a]pyrrolo[3,4-d]pyrimidin-4-yl)-N-(5-fluoropyridin-2-yl)acetamide] | 1590 | 30 | 42 | 53
CC(C)N1Cc2c(n(CC(=O)Nc3ccc(F)cn3)c3cc(NC(=O)COCc4ccccc4)nn3c2=O)C1=O [Example 287, 2-(benzyloxy)-N-[4-{2-[(5-fluoropyridin-2-yl)amino]-2-oxoethyl}-5,8-dioxo-6-(propan-2-yl)-5,6,7,8-tetrahydro-4H-pyrazolo[1,5-a]pyrrolo[3,4-d]pyrimidin-2-yl]acetamide] | 1800 | 38 | 32 | 48
CCc1cc2n(CC(=O)Nc3ccc(F)cn3)c3c(c(=O)n2n1)CN(C1CCNC1)C3=O (single isomer, unassigned) [Example 278, 2-{2-ethyl-5,8-dioxo-6-[pyrrolidin-3-yl]-5,6,7,8-tetrahydro-4H-pyrazolo[1,5-a]pyrrolo[3,4-d]pyrimidin-4-yl}-N-(5-fluoropyridin-2-yl)acetamide] | > 32000 | >47 | 650 | 675
CCc1cc2n(CC(=O)Nc3ccc(F)cn3)c3c(c(=O)n2n1)CN(C1CCN(C)C1)C3=O (centres unmarked) [Example 253] | > 32000 | >40 | 493 | 793
CC(C)N1Cc2c(n(CC(=O)Nc3ccc(F)cn3)c3cc(-c4ccncc4)nn3c2=O)C1=O [Example 149, 2-[5,8-dioxo-6-(propan-2-yl)-2-(pyridin-4-yl)-5,6,7,8-tetrahydro-4H-pyrazolo[1,5-a]pyrrolo[3,4-d]pyrimidin-4-yl]-N-(5-fluoropyridin-2-yl)acetamide] | 2110 | 169 | 11 | 13
